Experiments:
CDK2/CycE = target: T1, CDK2/CycE (Homo sapiens, UniProt P24941); test: CDK2/CycE kinase assay (Method 2a, TR-FRET, 10 μM ATP); type: biochemical
T1 construct: GST; purchased ProQinase GmbH (Freiburg, Germany); host or cells: insect cells (Sf9)
Source text: 2a. CDK2/CycE Kinase Assay:
CDK2/CycE-inhibitory activity of compounds of the present invention was quantified employing the CDK2/CycE TR-FRET assay as described in the following paragraphs:
Recombinant fusion proteins of GST and human CDK2 and of GST and human CycE, expressed in insect cells (Sf9) and purified by Glutathion-Sepharose affinity chromatography, were purchased from ProQinase GmbH (Freiburg, Germany). As substrate for the kinase reaction biotinylated peptide biotin-Ttds-YISPLKSPYKISEG (C-terminus in amid form) was used which can be purchased e.g. form the company JERINI Peptide Technologies (Berlin, Germany).
For the assay 50 n1 of a 100 fold concentrated solution of the test compound in DMSO was pipetted into a black low volume 384 well microtiter plate (Greiner Bio-One, Frickenhausen, Germany), 2 μl of a solution of CDK2/CycE in aqueous assay buffer [50 mM Tris/HCl pH 8.0, 10 mM MgCl2, 1.0 mM dithiothreitol, 0.1 mM sodium ortho-vanadate, 0.01% (v/v) Nonidet-P40 (Sigma)] were added and the mixture was incubated for 15 min at 22° C. to allow pre-binding of the test compounds to the enzyme before the start of the kinase reaction. Then the kinase reaction was started by the addition of 3 μl of a solution of adenosine-tri-phosphate (ATP, 16.7 μM=>final conc. in the 5 μl assay volume is 10 μM) and substrate (1.25 μM=>final conc. in the 5 μl assay volume is 0.75 μM) in assay buffer and the resulting mixture was incubated for a reaction time of 25 min at 22° C. The concentration of CDK2/CycE was adjusted depending of the activity of the enzyme lot and was chosen appropriate to have the assay in the linear range, typical concentrations were in the range of 130 ng/mL. The reaction was stopped by the addition of 5 μl of a solution of TR-FRET detection reagents (0.2 μM streptavidine-XL665 [Cisbio Bioassays, Codolet, France] and 1 nM anti-RB(pSer807/pSer811)-antibody from BD Pharmingen [#558389] and 1.2 nM LANCE EU-W1024 labeled anti-mouse IgG antibody [Perkin-Elmer, product no. AD0077]) in an aqueous EDTA-solution (100 mM EDTA, 0.2% (w/v) bovine serum albumin in 100 mM HEPES/NaOH pH 7.0).
The resulting mixture was incubated 1 h at 22° C. to allow the formation of complex between the phosphorylated biotinylated peptide and the detection reagents. Subsequently the amount of phosphorylated substrate was evaluated by measurement of the resonance energy transfer from the Eu-chelate to the streptavidine-XL. Therefore, the fluorescence emissions at 620 nm and 665 nm after excitation at 350 nm was measured in a TR-FRET reader, e.g. a Rubystar (BMG Labtechnologies, Offenburg, Germany) or a Viewlux (Perkin-Elmer). The ratio of the emissions at 665 nm and at […] was taken as the measure for the amount of phosphorylated substrate. The data were normalised (enzyme reaction without inhibitor=0% inhibition, all other assay components but no enzyme=100% inhibition).

DU145 cells = test: Proliferation assay (Method 3), DU145; type: cell-based; conditions: DU-145, 96 h; hormone-independent human prostate carcinoma, 4 days, crystal violet; read-out: Inhibition of DU145 cell proliferation IC50
Method: (§1) Cultivated tumour cells (HeLa, human cervical tumour cells, ATCC CCL-2; NCI-H460, human non-small cell lung carcinoma cells, ATCC HTB-177; A2780, human ovarian carcinoma cells, ECACC #93112519; DU 145, hormone-independent human prostate carcinoma cells, ATCC HTB-81; HeLa-MaTu-ADR, multidrug-resistant human cervical carcinoma cells, EPO-GmbH Berlin; Caco-2, human colorectal carcinoma cells, ATCC HTB-37; B16F10, mouse melanoma cells, ATCC CRL-6475) were plated at a density of 5,000 cells/well (DU145, HeLa-MaTu-ADR), 3,000 cells/well (NCI-H460, HeLa), 2,500 cells/well (A2780), 1,500 cells/well (Caco-2), or 1,000 cells/well (B16F10) in a 96-well multititer plate in 200 μL of their respective growth medium supplemented 10% fetal calf serum. After 24 hours, the cells of one plate (zero-point plate) were stained with crystal violet (see below), while the medium of the other plates was replaced by fresh culture medium (200 μl), to which the test substances were added in various concentrations (0 μM, as well as in the range of 0.001-10 μM; the final concentration of the solvent dimethyl sulfoxide was 0.5%). The cells were incubated for 4 days in the presence of test substances. Cell proliferation was determined by staining the cells with crystal violet: the cells were fixed by adding 20 μl/measuring point of an 11% glutaric aldehyde solution for 15 minutes at room temperature. After three washing cycles of the fixed cells with water, the plates were dried at room temperature. The cells were stained by adding 100 μl/measuring point of a 0.1% crystal violet solution (pH 3.0). After three washing cycles of the stained cells with water, the plates were dried at room temperature. The dye was dissolved by adding 100 μl/measuring point of a 10% acetic acid solution. The extinction was determined by photometry at a wavelength of 595 nm. The change of cell number, in percent, was calculated by normalization of the measured values to the extinction values of the zero-point plate (=0%) and the extinction of the untreated (0 μm) cells (=100%). The IC50 values (inhibitory concentration at 50% of maximal effect) were determined by means of a 4 parameter fit.

Caco-2 cells = test: Proliferation assay (Method 3), Caco-2; type: cell-based; conditions: Caco-2, 96 h; human colorectal carcinoma, 4 days, crystal violet; read-out: Inhibition of Caco-2 cell proliferation IC50
Method: as §1

B16F10 cells = test: Proliferation assay (Method 3), B16F10; type: cell-based; conditions: B16-F10, 96 h; mouse melanoma, 4 days, crystal violet; read-out: Inhibition of B16F10 cell proliferation IC50
Method: as §1

IC50 (CDK2/CycE) [nM] | IC50 (DU145 cells) [nM] | IC50 (Caco-2 cells) [nM] | IC50 (B16F10 cells) [nM] | Compound
87 | 34 | 40 | 70 | CS(=O)(=O)Cc1ccnc(Nc2cc(-c3ccc(F)c4ccoc34)c(F)cn2)c1 [Example 1, 5-Fluoro-4-(4-fluoro-1-benzofuran-7-yl)-N-{4-[(methylsulfonyl)methyl]pyridin-2-yl}pyridin-2-amine]
71 | 36 | 37 | 59 | CS(=O)(=O)Cc1cc(F)nc(Nc2cc(-c3ccc(F)c4ccoc34)c(F)cn2)c1 [Example 2, 5-Fluoro-4-(4-fluoro-1-benzofuran-7-yl)-N-{6-fluoro-4-[(methylsulfonyl)methyl]pyridin-2-yl}pyridin-2-amine]

The next lines start with the compound.

Compound | IC50 (CDK2/CycE) [nM] | IC50 (DU145 cells) [nM] | IC50 (Caco-2 cells) [nM] | IC50 (B16F10 cells) [nM]
Cc1cc(CS(C)(=O)=O)cc(Nc2cc(-c3ccc(F)c4ccoc34)c(F)cn2)n1 [Example 3, 5-Fluoro-4-(4-fluoro-1-benzofuran-7-yl)-N-{6-methyl-4-[(methylsulfonyl)methyl]pyridin-2-yl}pyridin-2-amine] | 46 | 24 | 12 | 32
CS(=O)(=O)Cc1cc(Nc2cc(-c3ccc(F)c4ccoc34)c(F)cn2)nc(C(F)(F)F)c1 [Example 4, 5-Fluoro-4-(4-fluoro-1-benzofuran-7-yl)-N-{4-[(methylsulfonyl)methyl]-6-(trifluoromethyl)pyridin-2-yl}pyridin-2-amine] | 33 | 30 | 14 | 31
CS(=O)(=O)Cc1ccnc(Nc2cc(-c3cccc4ccoc34)c(F)cn2)c1 [Example 5, 4-(1-Benzofuran-7-yl)-5-fluoro-N-{4-[(methylsulfonyl)methyl]pyridin-2-yl}pyridin-2-amine] | 69 | 58 | 61 | 120

Source: patent publication US9856242B2, “5-fluoro-N-(pyridin-2-yl)pyridin-2-amine derivatives containing a sulfone group” (Bayer Pharma Aktiengesellschaft, priority 2014, dated 2018)
